Source: patent publication US6015818A, “Quinoline derivatives as bradykinin agonists” (Fujisawa Pharmaceutical Co., Ltd., priority 1996, dated 2000)

How the values were obtained:
[1] = molecular target: T1, Bradykinin receptor (Cavia porcellus, UniProt O70526); assay: 3H-Bradykinin receptor binding (crude guinea pig ileum membrane); design: species or system guinea pigs; details: 3H-Bradykinin 0.06 nM, room temperature, 60 minutes, read-out: Inhibition of ^3 H-Bradykinin binding: IC50
T1 construct: The ileum was removed and homogenized in buffer; from tissue; host or cells: guinea pig (male Hartley strain) ileum, crude membrane suspension
T1 sequence (O70526 1-372): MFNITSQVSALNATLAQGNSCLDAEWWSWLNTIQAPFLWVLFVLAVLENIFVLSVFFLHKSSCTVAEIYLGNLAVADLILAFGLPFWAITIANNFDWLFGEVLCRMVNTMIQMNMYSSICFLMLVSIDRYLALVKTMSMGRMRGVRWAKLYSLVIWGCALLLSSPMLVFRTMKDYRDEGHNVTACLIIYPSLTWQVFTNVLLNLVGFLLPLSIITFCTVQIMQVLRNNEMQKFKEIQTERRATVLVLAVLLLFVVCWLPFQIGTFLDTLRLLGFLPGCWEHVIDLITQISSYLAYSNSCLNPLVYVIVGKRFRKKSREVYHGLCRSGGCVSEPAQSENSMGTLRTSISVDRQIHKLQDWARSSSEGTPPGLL
Procedure: (I) ^3 H-Bradykinin receptor binding
(a) Crude ileum membrane preparation
Male Hartly strain guinea pigs were sacrificed by decapitation. The ileum was removed and homogenized in buffer (50 mM 2-[[tris(hydroxymethyl)methyl]amino]-1-ethanesulfonic acid (TES), 1 mM 1,10-phenanthroline pH 6.8). The homogenate was centrifuged (1000×g,20 minutes) to remove tissue clumps and the supernatant was centrifuges (100,000×g, 60 minutes) to yield a pellet. The pellet was resuspended in buffer (50 mM TES, 1 mM 1,10-phenanthroline, 140 mg/l bacitracin, 1 mM dithiothreiol, 0.1% bovine serum albumin pH 6.8) and homogenized with a glass-teflon homogenizer to yield suspension which was referred to as crude membrane suspension. The obtained membrane suspension was stored at -80° C. until use.
(b) ^3 H-Bradykinin binding to the membrane
The frozen crude membrane suspension was thawed. In binding assays, ^3 H-Bradykinin (0.06 nM) and drug were incubated with 50 μl of the membrane suspension at room temperature for 60 minutes in a final volume of 250 μ1. Separation of receptor-bound from free ^3 H-Bradykinin is achieved by immediate filtration under vacuum and washed three times with 5 ml of ice-cold buffer (50 mM Tris-HCl pH 7.5). Non-specific binding was defined as binding in the presence of 0.1 μM Bradykinin. The radioactivity retained on rinsed filters was determined by a liquid-scintillation counter.

[2] = test system: WI-38 PGE2 production; assay: Prostaglandin E2 (PGE2) production in human fibroblasts (WI-38); format: cell-based; details: WI-38, 0.5 h, concentration: 1 × 10^-6 M, 30 minutes at 37° C., PGE2 by EIA, read-out: WI-38 PGE2 production increase ratio
Procedure: (II) Prostaglandin E2 (PGE2) production in human fibroblasts
The assay of PGE2 production was modified from the procedure described in The Journal of Biological Chemistry, 257, 8630-8633 (1982).
Human fibroblasts (WI-38, ATCC CCL75) were grown in Eagle's Minimum Essential Medium [E-MEM: ICN Biomedical Inc., Cat. No. 10-101-24 (47.6 g) with sodium bicarbonate (11.0 g), penicillin G potassium salt (0.5 g), streptomycin sulfate (0.5 g) in water (5000 ml) and 10% fetal bovine serum]. The cells were placed into the quiescent state after confluence was reached.
(b) Measurements of PGE2 production
WI-38 cells were seeded in 24-well plates at a density of 1×10^5 cells/well with 0.5 ml of E-MEM including 1% fetal bovine serum and were cultured for 1 day. The mediums in 24-well plates in which WI-38 cells were cultured were removed by aspiration and Hanks-bovine serum albumin buffer [Hanks-BSA Buffer: Hanks' balanced salts (4.9 g), sodium bicarbonate (0.1 g) and bovine serum albumin (protease free) (0.5 g)] was added thereto. […] Supernatant was collected, and PGE2 level included therein was measured by PGE2 EIA Kit (Cayman Chemical Co.).

IC50 [1] [nM]	SMILES	fold induction at 1 µM [2]
6.3	COc1nc2c(OCc3c(Cl)ccc(N(C)C(=O)CNC(=O)/C=C/c4ccc(NC(C)=O)nc4)c3Cl)cccc2n1Cc1ccccn1 [Example 9, 4-[3-[N-[(E)-3-(6-acetamidopyridin-3-yl)acryloylglycyl]-N-methylamino]-2,6-dichlorobenzyloxy]-2-methoxy-1-(2-pyridylmethyl)-1H-benzimidazole]	10.8
0.99	CNC(=O)c1ccc(C=CC(=O)NCC(=O)N(C)c2ccc(Cl)c(COc3cccc4c(OCc5ccccn5)cc(C)nc34)c2Cl)cc1 [Example 1-(2), 8-[2,6-dichloro-3-[N-[4-(methylcarbamoyl)cinnamoylglycyl]-N-methylamino]benzyloxy]-2-methyl-4-(2-pyridylmethoxy)quinoline]	7.95
